{"source": "patent US4818687A", "about": "(priority 1985, dated 1989)", "origin": "cited, not measured here", "test_system": "human liver cancer"}
{"molecule": "COc1cc2c(c3oc(=O)c4c(c13)CCC4=O)[C@@H]1C=CO[C@@H]1O2", "note": "[aflatoxin B1]", "values": [{"measurement": "association with human liver cancer", "result": "statistically associated with increased incidence of human liver cancer"}]}
